In PubChem BioAssay (NCI):
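Each compound was tested at five concentrations against cells in 96-well plates for 48 hours. Definition used: TGI = concentration required for complete inhibition of growth.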

How the values were obtained:
Test in all cases: DTP human tumour cell line panel, 48 h
SK-MEL-28 melanoma = test system: SK-MEL-28 melanoma
DMS 114 small cell lung = test system: DMS 114 small cell lung
MALME-3M melanoma = test system: MALME-3M melanoma
OVCAR-3 ovarian = test system: OVCAR-3 ovarian
MOLT-4 leukemia = test system: MOLT-4 leukemia
786-0 renal = test system: 786-0 renal
HCT-15 colon = test system: HCT-15 colon
HL-60(TB) leukemia = test system: HL-60(TB) leukemia
UACC-62 melanoma = test system: UACC-62 melanoma
HOP-92 NSCLC = test system: HOP-92 NSCLC
SK-OV-3 ovarian = test system: SK-OV-3 ovarian
HT29 colon = test system: HT29 colon
HOP-62 NSCLC = test system: HOP-62 NSCLC
LXFL 529 NSCLC = test system: LXFL 529 NSCLC
HCT-116 colon = test system: HCT-116 colon
A549 NSCLC = test system: A549 NSCLC
OVCAR-8 ovarian = test system: OVCAR-8 ovarian
SF-295 CNS = test system: SF-295 CNS
DLD-1 colon = test system: DLD-1 colon
XF 498 CNS = test system: XF 498 CNS
NCI-H23 lung = test system: NCI-H23 lung
RXF-631 renal = test system: RXF-631 renal
SNB-75 CNS = test system: SNB-75 CNS
SNB-78 CNS = test system: SNB-78 CNS
M19-MEL melanoma = test system: M19-MEL melanoma
NCI-H460 lung = test system: NCI-H460 lung
SF-539 CNS = test system: SF-539 CNS
OVCAR-4 ovarian = test system: OVCAR-4 ovarian
TK-10 renal = test system: TK-10 renal
SK-MEL-2 melanoma = test system: SK-MEL-2 melanoma
U251 CNS = test system: U251 CNS
LOX IMVI melanoma = test system: LOX IMVI melanoma
CCRF-CEM leukemia = test system: CCRF-CEM leukemia
HOP-18 NSCLC = test system: HOP-18 NSCLC
KM20L2 colon = test system: KM20L2 colon
UO-31 renal = test system: UO-31 renal
IGROV1 ovarian = test system: IGROV1 ovarian
KM12 colon = test system: KM12 colon
SF-268 CNS = test system: SF-268 CNS
M14 melanoma = test system: M14 melanoma
UACC-257 melanoma = test system: UACC-257 melanoma
OVCAR-5 ovarian = test system: OVCAR-5 ovarian
SNB-19 CNS = test system: SNB-19 CNS
RXF 393 renal = test system: RXF 393 renal
K-562 leukemia = test system: K-562 leukemia
A498 renal = test system: A498 renal
EKVX NSCLC = test system: EKVX NSCLC
SW-620 colon = test system: SW-620 colon
RPMI-8226 leukemia = test system: RPMI-8226 leukemia
ACHN renal = test system: ACHN renal
NCI-H522 lung = test system: NCI-H522 lung
DMS 273 small cell lung = test system: DMS 273 small cell lung
SN12C renal = test system: SN12C renal
COLO 205 colon = test system: COLO 205 colon
SK-MEL-5 melanoma = test system: SK-MEL-5 melanoma
SR leukemia = test system: SR leukemia
NCI-H226 lung = test system: NCI-H226 lung
CAKI-1 renal = test system: CAKI-1 renal
HCC-2998 colon = test system: HCC-2998 colon

NC(N)=NS(=O)(=O)c1ccc(NC(=O)c2cccc3c(Nc4ccc(S(=O)(=O)N=C(N)N)cc4)c4ccccc4nc23)cc1
TGI (SK-MEL-28 melanoma): > 100 µM
TGI (DMS 114 small cell lung): > 100 µM
TGI (MALME-3M melanoma): > 100 µM
TGI (OVCAR-3 ovarian): > 100 µM
TGI (MOLT-4 leukemia): > 100 µM
TGI (786-0 renal): > 100 µM
TGI (HCT-15 colon): > 100 µM
TGI (HL-60(TB) leukemia): > 100 µM
TGI (UACC-62 melanoma): > 100 µM
TGI (HOP-92 NSCLC): > 100 µM
TGI (SK-OV-3 ovarian): > 100 µM
TGI (HT29 colon): > 100 µM
TGI (HOP-62 NSCLC): > 100 µM
TGI (LXFL 529 NSCLC): > 100 µM
TGI (HCT-116 colon): > 100 µM
TGI (A549 NSCLC): > 100 µM
TGI (OVCAR-8 ovarian): > 100 µM
TGI (SF-295 CNS): > 100 µM
TGI (DLD-1 colon): > 100 µM
TGI (XF 498 CNS): > 100 µM
TGI (NCI-H23 lung): > 100 µM
TGI (RXF-631 renal): > 100 µM
TGI (SNB-75 CNS): 81.5 µM
TGI (SNB-78 CNS): > 100 µM
TGI (M19-MEL melanoma): > 100 µM
TGI (NCI-H460 lung): > 100 µM
TGI (SF-539 CNS): > 100 µM
TGI (OVCAR-4 ovarian): > 100 µM
TGI (TK-10 renal): > 100 µM
TGI (SK-MEL-2 melanoma): > 100 µM
TGI (U251 CNS): > 100 µM
TGI (LOX IMVI melanoma): > 100 µM
TGI (CCRF-CEM leukemia): > 100 µM
TGI (HOP-18 NSCLC): > 100 µM
TGI (KM20L2 colon): > 100 µM
TGI (UO-31 renal): > 100 µM
TGI (IGROV1 ovarian): > 100 µM
TGI (KM12 colon): > 100 µM
TGI (SF-268 CNS): > 100 µM
TGI (M14 melanoma): > 100 µM
TGI (UACC-257 melanoma): > 100 µM
TGI (OVCAR-5 ovarian): > 100 µM
TGI (SNB-19 CNS): > 100 µM
TGI (RXF 393 renal): > 100 µM
TGI (K-562 leukemia): > 100 µM
TGI (A498 renal): > 100 µM
TGI (EKVX NSCLC): > 100 µM
TGI (SW-620 colon): > 100 µM
TGI (RPMI-8226 leukemia): > 100 µM
TGI (ACHN renal): > 100 µM
TGI (NCI-H522 lung): > 100 µM
TGI (DMS 273 small cell lung): > 100 µM
TGI (SN12C renal): > 100 µM
TGI (COLO 205 colon): > 100 µM
TGI (SK-MEL-5 melanoma): > 100 µM

Cc1cccc(-c2cc(=O)c3cc(C)c(C)c(C(=O)O)c3o2)c1
TGI (SK-MEL-28 melanoma): > 100 µM
TGI (DMS 114 small cell lung): > 100 µM
TGI (MALME-3M melanoma): > 100 µM
TGI (OVCAR-3 ovarian): > 100 µM
TGI (SR leukemia): > 100 µM
TGI (MOLT-4 leukemia): > 100 µM
TGI (786-0 renal): > 100 µM
TGI (HCT-15 colon): > 100 µM
TGI (HL-60(TB) leukemia): > 100 µM
TGI (UACC-62 melanoma): > 100 µM
TGI (HOP-92 NSCLC): > 100 µM
TGI (SK-OV-3 ovarian): > 100 µM
TGI (HT29 colon): > 100 µM
TGI (HOP-62 NSCLC): > 100 µM
TGI (LXFL 529 NSCLC): > 100 µM
TGI (HCT-116 colon): > 100 µM
TGI (A549 NSCLC): > 100 µM
TGI (OVCAR-8 ovarian): > 100 µM
TGI (SF-295 CNS): > 100 µM
TGI (NCI-H226 lung): > 100 µM
TGI (DLD-1 colon): > 100 µM
TGI (XF 498 CNS): > 100 µM
TGI (NCI-H23 lung): > 100 µM
TGI (RXF-631 renal): > 100 µM
TGI (SNB-75 CNS): > 100 µM
TGI (SNB-78 CNS): > 100 µM
TGI (M19-MEL melanoma): > 100 µM
TGI (NCI-H460 lung): > 100 µM
TGI (SF-539 CNS): > 100 µM
TGI (OVCAR-4 ovarian): > 100 µM
TGI (TK-10 renal): > 100 µM
TGI (SK-MEL-2 melanoma): > 100 µM
TGI (U251 CNS): > 100 µM
TGI (LOX IMVI melanoma): > 100 µM
TGI (CCRF-CEM leukemia): > 100 µM
TGI (HOP-18 NSCLC): > 100 µM
TGI (KM20L2 colon): > 100 µM
TGI (UO-31 renal): > 100 µM
TGI (IGROV1 ovarian): > 100 µM
TGI (KM12 colon): > 100 µM
TGI (M14 melanoma): > 100 µM
TGI (UACC-257 melanoma): > 100 µM
TGI (OVCAR-5 ovarian): > 100 µM
TGI (SNB-19 CNS): > 100 µM
TGI (K-562 leukemia): > 100 µM
TGI (CAKI-1 renal): > 100 µM
TGI (EKVX NSCLC): > 100 µM
TGI (SW-620 colon): > 100 µM
TGI (RPMI-8226 leukemia): > 100 µM
TGI (ACHN renal): > 100 µM
TGI (NCI-H522 lung): > 100 µM
TGI (DMS 273 small cell lung): > 100 µM
TGI (SN12C renal): > 100 µM
TGI (HCC-2998 colon): > 100 µM
TGI (COLO 205 colon): > 100 µM
TGI (SK-MEL-5 melanoma): > 100 µM
